Experimental data as given in publication PMC10482825 (Scientific Reports, 2023).
In brackets after ≈: the same amount, converted by molar mass. Several values for one entry are separate records, joined by “and”; a condition that tells them apart may be missing. Equal entries are not always repeated. Where a SMILES comes first, the peptide text is derived from it.

Tests used:
[1] = tested on: S. enterica mature biofilm; experiment: Antibiofilm microtiter plate assay (mature biofilm, crystal violet); assay type: cell-based, Salmonella enterica (ATCC, 14028); details: for Minimal biofilm eradication concentration (MBEC) S. enterica: tested 12.5-200 µM
Description: The antibiofilm activities of the selected cryptides against S. enterica and MRSA mature biofilms were examined by microtiter plate assay as previously described, with slight modification. During the mid-logarithmic phase, S. enterica and MRSA were suspended at the density of 1.7 × 10^8 CFU/ml in MHB. Then 100 µl of each bacterial suspension was dispensed into a vinyl 96 U-shaped-well plate and incubated overnight at 37 °C. The mature biofilms were washed with 10 mM Tris–HCl containing 5 mM D-glucose at pH 7.4 and treated for 8 h with 100 µl of two-fold serially diluted cryptides, under the same incubation conditions. A sterile MHB medium was used as the positive control while an equivalent volume of acidified water was used to treat the negative controls. The treated biofilms were washed twice with the same washing buffer and stained with 0.1% crystal violet for 15 min followed by rinsing with sterile distilled water twice and then dried for 30 min at 37 °C. The stain was dissolved with 33% acetic acid and transferred to an optically clear 96-well flat bottom plate which was then measured at 600 nm.
Table S.4 Antibiofilm activities of the selected Cryptides against S. enterica and MRSA. Microbial cells were suspended at 1.7 X 10^8 CFU/ml density, during the mid-logarithmic phase in MHB. Then, 96 U-shaped -well plates were inoculated with 100 µl of microbial suspension and incubated for 48 h at 37 °C. The formed biofilms were washed with 10 mM Tris-HCl and treated with 100 µl of different concentrations of each peptide for 24 h. The treated biomasses were washed and fixed with methanol for 15 min at -20 °C before staining with 0.1 % crystal violet. The stained biofilms were dissolved in 100 µl of 33 % acetic acid and the quantities of crystal violet stains were determined by measuring absorbance at 600 nm as an indicator of the remaining biomass after treatment. Untreated cells were used as negative control [indicating 100 % biofilm integrity] while the sterile medium was used as a positive control [indicating 0 % biofilm integrity].
S. enterica MRSA S. enterica MRSA S. enterica MRSA S. enterica MRSA S. enterica MRSA

P. aeruginosa = experiment: Radial diffusion assay; assay type: cell-based, Pseudomonas aeruginosa (ATCC, 10145); details: 5 µl of 500 µM per 3 mm well, 37 °C, mean ± SD
Excerpt: (§1) The microbial strains used in this study were Bacillus subtilis (ATCC, 11774), Candida albicans (TIMM, 1768), Enterococcus faecalis (ATCC, 33186), Escherichia coli (ATCC, 11775), Klebsiella pneumoniae (ATCC, 13883), Methicillin-resistant Staphylococcus aureus (ATCC, BAA-41), Pseudomonas aeruginosa (ATCC, 10145), Salmonella enterica (ATCC, 14028), Serratia marcescens (ATCC, 13880), Staphylococcus aureus (ATCC, 25923) and Vibrio parahaemolyticus (ATCC, 17802). All microbial strains were cultivated overnight at 37 °C and 200 rpm, then subcultured and incubated for 3 h under the same incubation conditions to obtain the mid-logarithmic growth phase. The cultivated cells were washed twice with 10 mM Tris–HCl containing 5 mM D-glucose at pH 7.4 and suspended in the same buffer to be used in different assays, as previously described.
The antimicrobial activity spectra of the selected cryptides were screened against all the mentioned microbial pathogens, except V. parahaemolyticus, by radial diffusion assay as previously described, with slight modifications. […] The plates were then incubated for 18 h, and the antimicrobial activities were measured in the absolute unit (AU), as previously described. […]
(§2) plate. The plates were then incubated for 12 h at 37 °C and antimicrobial activities were measured in the term of absolute unit (A.U). […]

B. subtilis = assay type: cell-based, Bacillus subtilis (ATCC, 11774); details: micro-broth dilution, 3 h peptide treatment then MHB 18 h, 37 °C, OD 600 nm
Excerpt: as §1
As a conclusive quantitative assessment, broth microtiter assay was used to determine the MIC values of each cryptide against B. subtilis, MRSA, S. enterica, P. aeruginosa, V. parahaemolyticus and C. albicans by following the guidelines of the Clinical and Laboratory Standards Institute (CLSI)[67], with slight modifications. Eighty microliters of 5 × 10^4 CFU/ml of each pathogen were dispensed into a 96-well polypropylene microtiter plate. The wells were then treated with 20 µl of serially diluted cryptides for 3 h at 37 °C. Gentamicin was used for positive controls at 0.2 mg/ml while an equivalent volume of acidified water was used for negative controls. The plates were then topped up with a final concentration of 1 × Mueller Hinton Broth (MHB) and incubated for 18 h under the same incubation conditions. MIC was detected as the lowest concentration of each cryptide that prevents the optically detectable microbial growth at OD = 600 nm.

S. epidermidis = experiment: Radial diffusion assay; assay type: cell-based; details: 5 µl of 500 µM per 3 mm well, 37 °C, mean ± SD
Excerpt: The antimicrobial activity spectra of the selected cryptides were screened against all the mentioned microbial pathogens, except V. parahaemolyticus, by radial diffusion assay as previously described, with slight modifications. We aimed to test different categories of pathogens on the WHO global priority due to their growing resistance to the available antibiotics such as P. aeruginosa, E. coli and K. pneumoniae in the critical category and Salmonella ssp. and S. aureus in the high category. Briefly, a total of 4 × 10^6 CFU of each pathogen was inoculated in 10 mL of an underlay agarose gel [0.03% w/v tryptone soy broth (TSB) medium, 1% w/v agarose and 0.02% v/v Tween 20 in 10 mM Tris–HCl] that was then poured into a 100-mm petri dish. After agarose solidification, 3 mm-diameter wells were punched by a sterile cork borer and 5 µl of 500 µM stock solution from each cryptide was added to each well. Melittin and acidified water were used as positive and negative controls, respectively. […] The plates were then incubated for 18 h, and the antimicrobial activities were measured in the absolute unit (AU), as previously described. […]
as §2

human RBCs = experiment: Hemolytic assay; assay type: cell-based; details: 2% RBCs in PBS, 2 h, 37 °C, supernatant at 450 nm, 0.1% TritonX-100 = maximum; highest tested concentration 100 µM
Description: All methods were carried out in accordance with the Declaration of Helsinki, and the Research Ethics Committee approved all experimental protocols at Sunway University (approval no. PGSUREC2020/005). A human blood sample was collected from a healthy person for this assay upon obtaining informed consent. The fresh blood sample was centrifuged at 3700 g for 5 min at RT. The supernatant (serum) was removed and red blood cells (RBCs) were washed three times with 1X PBS and diluted to a final concentration of 2% (PBS—137 mM NaCl, 2.7 mM KCl, 10 mM Na2HPO4, 1.76 mM KH2PO4). Cells were stored at 4 °C, and used within 5 h.
The hemolytic activities of the identified cryptides were evaluated as previously described. The prepared RBCs were treated with different peptide concentrations for 2 h at 37 °C. The treated RBCs were centrifuged, under the same centrifugation conditions, and the supernatants were transferred to a 96-well plate and measured at 450 nm.

[2] = crystal violet, absorbance 600 nm, mean ± SD

Molecule | Biofilm eradication S. enterica, 12.5 µM [1, 2] [%] | Biofilm eradication S. enterica, 25 µM [1, 2] [%] | Biofilm eradication S. enterica, 50 µM [1, 2] [%] | Biofilm eradication S. enterica, 100 µM [1, 2] [%] | Biofilm eradication S. enterica, 200 µM [1, 2] | Antimicrobial activity (inhibition zone) P. aeruginosa (P. aeruginosa) [A.U.] | MIC (µM) B. subtilis (B. subtilis) [µM] | Antimicrobial activity (inhibition zone) S. epidermidis (S. epidermidis) [A.U.] | Minimal biofilm eradication concentration (MBEC) S. enterica [1] [µM] | Hemolysis of human RBCs at 100 µM (human RBCs) [%]
RHCLRSKRPPNVCPH [AD4, cationic cryptide from P. vannamei precursor DN34505 (Pl-crustin 2), chemically synthesised] | 6.16 ± 2.7 | 12.58 ± 1.9 | 30.41 ± 1.9 | 45.13 ± 2 | 80.63 ± 1% and 80.63% | 0 | 1.56 | 9 ± 0 | – | –
CSCC[C@H](NC(=O)[C@H](CCCCN)NC(=O)CNC(=O)[C@H](CCCCN)NC(=O)[C@H](Cc1ccc(O)cc1)NC(=O)[C@H](CC(N)=O)NC(=O)[C@H](CC(C)C)NC(=O)[C@H](CCC(N)=O)NC(=O)[C@H](CC(C)C)NC(=O)[C@@H](N)CCCNC(=N)N)C(=O)N[C@@H](Cc1c[nH]c2ccccc12)C(=O)N[C@@H](CS)C(=O)N1CCC[C@H]1C(=O)NCC(=O)N[C@@H](Cc1c[nH]c2ccccc12)C(=O)O [AD11] (H-RLQLNYKGKMWCPGW-OH) | – | – | – | – | – | – | 0.78 (≈ 1.47 µg/mL) | – | 200 | 20.7
CC(C)C[C@H](NC(=O)[C@H](CCCNC(=N)N)NC(=O)[C@H](Cc1c[nH]c2ccccc12)NC(=O)[C@H](CCCNC(=N)N)NC(=O)[C@H](CC(C)C)NC(=O)[C@@H](N)Cc1ccccc1)C(=O)N[C@@H](CCCCN)C(=O)N[C@@H](Cc1ccccc1)C(=O)N[C@@H](CCCCN)C(=O)N[C@@H](CO)C(=O)N[C@@H](CCCCN)C(=O)N[C@H](C(=O)N[C@@H](Cc1c[nH]c2ccccc12)C(=O)N[C@@H](CS)C(=O)N1CCC[C@H]1C(=O)O)C(C)C [AD7] (H-FLRWRLKFKSKVWCP-OH) | – | – | – | – | – | – | 0.39 (≈ 0.778 µg/mL) | – | 100 | 26.5
